# Experimental data published in paper PMC3912631, “Bench to Bed Evidences for Pharmacokinetic and Pharmacodynamic Interactions Involving Oseltamivir and Chinese Medicine” (Evidence-based Complementary and Alternative Medicine : eCAM, 2014).
# Where two headings read alike, the source gives them in different places.
# Key:
# [1] = Human crossover pharmacokinetic interaction study of WM (Tamiflu) alone or with CMF1; format: in vivo, human (Chinese male healthy volunteers); details: human; for half-life: read-out: T 1/2 (terminal half-life) (converted); for Tmax: read-out: T max
# Experimental: Normal healthy Chinese male subjects aged 20–45 years were recruited in this study. […] The study was conducted using a single-center, randomized, open-labeled, multiple dose (5 days), two-treatment, two-period, two-sequence crossover design. […] Each subject underwent two treatment sessions (periods I and II), and each session consists of 5-day treatment (twice daily for day 1 to day 4, morning dose for day 5). The two treatment sessions were separated by a washout period of 2 weeks. 250 mL water was used for WM (Tamiflu capsule, 75 mg per dose) administration. […] Drinking water was not allowed from 1 h predose to 1 h postdose except that needed for drug dosing. […] All blood and urine collection was taken on day 5 of each treatment session. […] Blood samples were collected from a catheter, which was placed in the forearm vein before dosing. At the specified time, 5 mL of blood was drawn (except for 0 time and at 2 h which was 10 mL each for additional antiviral activity determination) and stored in vacuette lithium heparin tubes (Greiner Bio-One). […] Plasma samples were collected after centrifugation and then stored at −80°C until assay. Urine was also collected (and the volume was recorded) at pre-dose, 0–4, 4–8, and 8–12 h intervals. […] After mixing and centrifugation, the supernatant was loaded in prewashed Oasis MCX cartridge (1 cc, 30 mg, Waters) and the cartridge was rinsed subsequently with 1% formic acid, water, and methanol followed by vacuum dried for 20 min. The analytes were then eluted with 1 mL of 1% ammonia in methanol. The eluting solvent was dried by a vacuum concentrator and the residue was reconstituted with 200 μL of 0.1% formic acid : methanol (1 : 1 v/v) prior to HPLC/MS/MS analysis using an ABI 2000 Q-Trap triple quadrupole mass spectrometer (Applied Biosystems) coupled with PE-200 series micropumps and autosampler (Perkin-Elmer). […] In human study, trough concentration (C trough) was defined as the minimum concentration obtained and was obtained at 12 h post-dose. […] In human studies, the comparison of WM + CMF1 to WM alone treatments was evaluated using a 90% confidence intervals (90% CI) approach (USFDA guideline, Drug Interactions Studies, September 2006). […] The statistical model included terms describing the effects attributable to sequence, subject (nested in sequence), period, and treatment (formulation). […] Difference in the median T max between both treatments was evaluated using Wilcoxon signed-rank test. For comparison of the human antiviral activities, one-way analysis of variance in conjunction with post hoc Turkey's range test was performed.
# [2] = system: influenza virus strains; set-up: method as in PMID 20215135; details: read-out: inhibitory concentrations (IC50) against influenza virus strains; cited from earlier work
# [3] = system: H3N2; set-up: method as in PMID 20215135; details: read-out: inhibitory concentrations (IC50) against H3N2; cited from earlier work
# [4] = geometric mean ratio of (WM + CMF1)/WM
# [5] = male, in vivo, 75 mg, day 5, WM alone, n = 14, arithmetic mean ± SD
# [6] = male, in vivo, day 5, WM + CMF1, n = 14, arithmetic mean ± SD
smiles,measurement,setting,value
"CCC(CC)O[C@@H]1C=C(C(=O)O)C[C@H](N)[C@H]1NC(C)=O [OC, oseltamivir carboxylate]",lowering of 12 h cumulative amount excreted in urine by co-administration of CMF1,[1],~ 14%
same,"12 h Cum. amt. in urine, geometric mean","[1]; WM + CMF1, n = 14",61224.10 µg
same,"12 h Cum. amt. in urine, geometric mean","[1]; WM alone, n = 14",71215.61 µg
same,time to reach peak maximum in plasma,[1]; approximate value,4 to 5 h
same,12 h Cum. amt. in urine,"[1]; day 5, WM + CMF1, n = 14, arithmetic mean ± SD",62087 ± 10741 µg
same,12 h Cum. amt. in urine,"[1]; day 5, WM alone, n = 14, arithmetic mean ± SD",72851 ± 15312 µg
same,GM Ratio of 12 h Cum. amt. in urine,[1]; [4],85.97%
same,GM Ratio of AUC0–12 h,[1]; [4],91.32%
same,GM Ratio of C max,[1]; [4],91.32%
same,concentration of OC in plasma relative to the respective OA,[1]; oral WM,~ 10 fold
same,AUC(0-t),"[1]; male, in vivo, 75 mg, WM alone, n = 14, read-out: AUC0–12 h, geometric mean",4450 ng·h/mL
same,Cmax,"[1]; male, in vivo, 75 mg, WM alone, n = 14, read-out: C max, geometric mean",526 ng/mL
same,CL renal,"[1]; male, in vivo, 75 mg, approximate value, read-out: renal clearance (converted)",~267 mL/min
same,concentration at 12 h,"[1]; male, in vivo, 75 mg, day 5, WM alone (Tamiflu 75 mg bid), n = 14, arithmetic mean ± SD, read-out: C trough (plasma concentration at 12 h postdose)",207 ± 67.7 ng/mL
same,AUC(0-t),"[1]; male, in vivo, 75 mg, day 5, WM alone, n = 14, arithmetic mean ± SD, read-out: AUC0–12 h",4580 ± 1160 ng·h/mL
same,Cmax,"[1]; male, in vivo, 75 mg, day 5, WM alone, n = 14, arithmetic mean ± SD, read-out: C max",536 ± 102 ng/mL
same,CL renal,"[1]; male, in vivo, 75 mg, day 5, WM alone, n = 14, arithmetic mean ± SD, read-out: Renal clearance (converted)",272 mL/min
same,AUC(0-t),"[1]; male, in vivo, WM + CMF1, n = 14, read-out: AUC0–12 h, geometric mean",4070 ng·h/mL
same,Cmax,"[1]; male, in vivo, WM + CMF1, n = 14, read-out: C max, geometric mean",481 ng/mL
same,concentration at 12 h,"[1]; male, in vivo, both WM and WM + CMF1 treatments, approximate value, read-out: mean C trough",~200 ng/mL
same,concentration at 12 h,"[1]; male, in vivo, both WM and WM + CMF1 treatments, read-out: mean C trough, molar equivalent",~704 nM
same,concentration at 2 h,"[1]; male, in vivo, both treatments (WM and WM + CMF1), read-out: 2 h post-dose plasma concentration",410 to 436 ng/mL
same,concentration at 12 h,"[1]; male, in vivo, day 5, WM + CMF1 (10 g per dose), n = 14, arithmetic mean ± SD, read-out: C trough (plasma concentration at 12 h postdose)",195 ± 51.2 ng/mL
same,AUC(0-t),"[1]; male, in vivo, day 5, WM + CMF1, n = 14, arithmetic mean ± SD, read-out: AUC0–12 h",4140 ± 783 ng·h/mL
same,Cmax,"[1]; male, in vivo, day 5, WM + CMF1, n = 14, arithmetic mean ± SD, read-out: C max",487 ± 82.7 ng/mL
same,CL renal,"[1]; male, in vivo, day 5, WM + CMF1, n = 14, arithmetic mean ± SD, read-out: Renal clearance (converted)",257 mL/min
same,half-life,[1]; [5],310 ± 76.2 min
same,Tmax,[1]; [5],4.21 ± 0.97 h
same,half-life,[1]; [6],342 ± 81 min
same,Tmax,[1]; [6],3.5 ± 0.94 h
same,IC50,[2],0.01 to 69.2 nM
same,IC50,[3],0.2 to 0.6 nM
